{
  "source": "patent US11034839B2",
  "about": "“Compounds, linked with haptens, for the detection of senescent cells” (THE UNIVERSITY OF MANCHESTER, priority 2016, dated 2021)",
  "key": {"[1]": {"system": "senescent cells in cellular systems, mouse models and human clinical samples", "test": "Double staining with Ki67, p16INK4A or p21WAF1/Cip1", "procedure": "(§1) • 1. Compound (LG13) • 2. 100% ethanol (100% EtOH) • 3. Parafilm • 4. Fritted glass filter of medium porosity • 5. Airtight Dye Container 2.2.2 General Procedure: • 1. Dissolve 40 mg of the compound (LG13) in 7.4 ml 100% EtOH in a glass beaker and cover it with parafilm. • 2. Incubate at 56° C. in a waterbath for 120 min until the compound is completely dissolved. 2.3. General Method for Compound (LG13) Staining 2.3.1 Materials: • 1. Xylene • 2. […] Syringe • 4. 13 mm filter, membrane 0.22 μm • 5. Soft paper (dry or dipped in ethanol) • 6. Anti-biotin antibody ([Hyb-8] ab201341, Abcam) • 7. Ultravision Quanto Detection System HRP DAB kit (Cat no: TL-125-QHD) • 8. Glycerol (Sigma-Aldrich) • 9. Tris Buffered Saline (TBS; 10×): 1.5 M NaCl, 0.1 M Tris-HCl, pH 7.4. Store at 4° C. • 10. 0.5% Triton X/TBS: 0.5 ml Triton X diluted in 99.5 ml TBS • 11. Mounting media Glycergel (DakoCytomation). • 12. Light Microscope • 13. Anti-p21^WAF1/Cip1 mouse primary antibody [(F-5)(sc-6246) Santa-Cruz] • 14. Anti-p16^INK4A mouse primary antibody [(sc-74401) Santa-Cruz] • 15. Anti-Ki67 rabbit polyclonal antibody [ab16667, Abcam] • 16. Secondary goat anti-mouse antibody Alexa Fluor 568 conjugated [Thermo Fisher Scientific (Cat no: A-11004)] • 17. DAPI (4′,6-Diamidino-2-Phenylindole, Dihydrochloride) [Thermo Fisher Scientific (Cat no: D1306)] • 18. Fluorescence microscope 2.3.2 General Procedures: 2.3.2.1 General Staining Protocol for Cells Mounted on Coverslips • 1. Wash ×1 in TBS for 5 min at RT. • 2. Block the endogenous hydrogen peroxidase, using the UltraVision Hydrogen Peroxide Block included in the Ultravision Quanto Detection System HRP DAB kit (Cat no: TL-125-QHD) for 10 min at RT and in dark conditions. • 3. Wash ×2 in TBS for 30 sec and ×1 for 5 min at RT. • 4. Wash ×1 in EtOH 50% for 5 min at RT. • 5. Wash ×1 EtOH 70% for 5 min at RT. • 6. […] The staining reaction is monitored under the light microscope until detection of the signal (average time 5-8 min). • 8. […] The staining reaction is monitored under the light microscope until detection of the dark brown signal (average time 30 sec-1 min) at RT 1. • 20. […]"}, "[2]": {"system": "senescent cells in U2OS hCdt1 Tet-ON cell line, palbociclib-induced human melanoma xenograft mouse model, irradiated human breast tissue", "test": "Hybrid histo-/immunochemical assay (HIC) compared with SBB histochemical stain (HC)", "procedure": "as §1, with “Anti-p16^INK4A mouse primary antibody [(sc-74401) Santa-Cruz] • 15. Anti-Ki67 rabbit polyclonal antibody [ab16667, Abcam] • 16. Secondary goat anti-mouse antibody Alexa Fluor 568 conjugated [Thermo Fisher Scientific (Cat no: A-11004)] • 17. DAPI (4′,6-Diamidino-2-Phenylindole, Dihydrochloride) [Thermo Fisher Scientific (Cat no: D1306)] • 18.” left out, “1.” for “1. Wash ×1 in TBS for 5 min at RT. • 2. Block the endogenous hydrogen peroxidase, using the UltraVision Hydrogen Peroxide Block included in the Ultravision Quanto Detection System HRP DAB kit (Cat no: TL-125-QHD) for 10 min at RT and in dark conditions. • 3. Wash ×2 in TBS for 30 sec and ×1 for 5 min at RT. • 4. Wash ×1 in EtOH 50% for 5 min at RT. • 5. Wash ×1 EtOH 70% for 5 min at RT. • 6.”"}},
  "data": [
    {"compound": "CC1(COC(=O)CCCC[C@H]2SC[C@H]3NC(=O)N[C@H]32)Nc2cccc3c(/N=N/c4ccc(/N=N/c5ccccc5)c5ccccc45)ccc(c23)N1", "note": "(stereo partly drawn) [LG13, (2-methyl-6-((E)-(4-((E)-phenyldiazenyl)naphthalen-1-yl)diazenyl)-2,3-dihydro-1H-perimidin-2-yl)methyl 5-((3aR,4R,6aS)-2-oxohexahydro-1H-thieno[3,4-d]imidazol-4-yl)pentanoate]", "values": [
      {"measurement": "relationship between Ki67 expression and compound staining", "setting": "[1]; double staining in cell culture systems and human clinical samples, FIG. 11", "result": "Strict inverse relationship"},
      {"measurement": "compound staining of senescent cells with nuclear p16INK4A or p21WAF1/Cip1 expression", "setting": "[1]; irradiated DLFs, induced Saos2-p21 Tet-ON, K-rasV12 mouse lung adenoma, irradiated human breast samples, FIG. 12i", "result": "concurrently positive"},
      {"measurement": "relationship between nuclear Ki67 positivity and compound staining", "setting": "[1]; lung sections, mouse bleomycin-induced lung fibrosis, FIG. 12ii", "result": "strict inverse relationship"},
      {"measurement": "IHC staining relative to SBB HC staining", "setting": "[2]; U2OS hCdt1 Tet-ON, palbociclib melanoma xenograft, irradiated human breast tissue, FIG. 14 ai, bi, ci", "result": "superiority"},
      {"measurement": "senescence detection using the HIC assay", "setting": "[2]; additional cellular systems, mouse models, human clinical samples, FIG. 14 aii, bii, cii", "result": "sensitive senescence detection"}
    ]}
  ]
}
